*1 amine or outer side, *2 acyl side, *3 side chain or, on linkers, in order; H or OH if unused. Where a SMILES comes first, the peptide text is derived from it. Side-chain parts run from the residue outwards. [ ]: non-standard residue; d: D form. The star is where a group is joined. C20 diacid = O=C(O)CCCCCCCCCCCCCCCCCCC(=O)*; γGlu = O=C(O)[C@H](CCC(=O)[*:2])N[*:1]; AEEA = NCCOCCOCC(=O)O; Aib = CC(C)(N)C(=O)O
Columns and labels:
[1] = biological target: T1, human GIP R (Homo sapiens, UniProt P48546); experiment: Human GIP receptor (GIP R) activity assay, cAMP induction (AlphaScreen) in HEK293 cells; format: cell-based; details: Table 3; most comprehensive data; read-out: hGIP-R cAMP EC50 average value
T1 construct: expressed in transfected cells
T1 sequence (P48546 22-466): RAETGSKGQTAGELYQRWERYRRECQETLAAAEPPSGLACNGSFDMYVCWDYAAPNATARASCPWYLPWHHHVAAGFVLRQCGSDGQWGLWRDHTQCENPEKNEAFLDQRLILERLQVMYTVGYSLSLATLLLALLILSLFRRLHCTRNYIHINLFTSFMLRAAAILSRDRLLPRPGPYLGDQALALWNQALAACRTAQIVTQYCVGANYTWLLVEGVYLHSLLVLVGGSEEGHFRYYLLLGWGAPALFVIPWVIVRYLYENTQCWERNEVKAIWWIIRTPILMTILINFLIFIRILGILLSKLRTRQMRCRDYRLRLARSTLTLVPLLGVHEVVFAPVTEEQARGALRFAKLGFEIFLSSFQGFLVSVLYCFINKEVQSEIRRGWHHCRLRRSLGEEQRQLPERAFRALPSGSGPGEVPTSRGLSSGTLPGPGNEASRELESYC
Description: (§1) Human GIP Receptor (GIP R) and GLP-1 Receptor (GLP-1 R) Activity Assay
(§2) In vitro effects of peptide conjugates of the invention were assessed by measuring the induction of cAMP following stimulation of the respective receptor by GIP, GLP1 or analogues of these, as outlined in the invention, using the AlphaSceen® cAMP kit from Perkin-Elmer according to instructions. Briefly, HEK293 cells expressing the human GIP R or GLP-1 R (stable cell lines generated through transfection of the cDNA for human GIP R or GLP-1 and selection of stable clones) were seeded at 30,000 cells/well in 96-well microtiter plates coated with 0.01% poly-L-lysine, and grown for 1 day in culture in 200 μl growth medium (DMEM, 10% FCS, Penicillin (100 IU/ml), Streptomycin (100 μg/ml)). On the day of analysis, growth medium was removed and the cells were washed once with […] Tyrode's buffer (Tyrode's Salts (9.6 g/l), 10 mM HEPES, pH 7.4). […] The Assay buffer was removed and cells are lysed in 80 μl Lysis buffer (0.1% w/v BSA, 5 mM HEPES, 0.3% v/v Tween-20) per well. From each well 10 μl lysed cells was transferred to a 384-well plate and mixed with 15 μl bead-mix (1 Unit/15 μl anti-cAMP Acceptor Beads, 1 Unit/15 μl Donor Beads, and 1 Unit/15 μl Biotinylated cAMP in Assay Buffer). The plates were mixed and incubated in the dark for an hour at room temperature before measuring using an Envision™ plate reader (Perkin-Elmer).
(§3) The resulting cAMP curves were plotted as absolute cAMP concentrations (nM) over log (test compound concentration) and analyzed using the curve fitting program XLfit.
(§4) Parameters calculated to describe both the potency as well as the agonistic activity of each test compound on the receptors were:
(§5) EC50, a concentration resulting in a half-maximal elevation of cAMP levels, reflecting the potency of the test compound.

[2] = biological target: T2, human GLP-1 R (Homo sapiens, UniProt P43220); experiment: Human GLP-1 receptor (GLP-1 R) activity assay, cAMP induction (AlphaScreen) in HEK293 cells; format: cell-based; details: Table 3; most comprehensive data; read-out: hGLP-1-R cAMP EC50 average value
T2 construct: expressed in transfected cells
T2 sequence (P43220 24-463): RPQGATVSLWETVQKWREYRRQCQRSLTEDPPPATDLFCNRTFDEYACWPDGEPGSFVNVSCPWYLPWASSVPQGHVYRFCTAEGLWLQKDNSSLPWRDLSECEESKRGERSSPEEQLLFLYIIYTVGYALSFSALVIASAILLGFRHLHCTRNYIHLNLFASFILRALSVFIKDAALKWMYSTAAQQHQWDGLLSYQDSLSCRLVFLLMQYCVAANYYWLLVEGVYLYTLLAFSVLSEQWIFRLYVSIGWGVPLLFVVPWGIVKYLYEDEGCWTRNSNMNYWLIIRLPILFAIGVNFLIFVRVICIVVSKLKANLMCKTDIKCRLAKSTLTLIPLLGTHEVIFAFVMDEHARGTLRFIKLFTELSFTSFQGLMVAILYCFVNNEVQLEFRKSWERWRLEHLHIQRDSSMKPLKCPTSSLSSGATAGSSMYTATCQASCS
Description: as §1, §2, §3, §4, §5

`CC[C@H](C)[C@H](NC(=O)[C@H](CO)NC(=O)[C@H](Cc1ccc(O)cc1)NC(=O)[C@H](CC(=O)O)NC(=O)[C@H](CO)NC(=O)[C@@H](NC(=O)[C@H](Cc1ccccc1)NC(=O)[C@@H](NC(=O)CNC(=O)[C@H](CCC(=O)O)NC(=O)C(C)(C)NC(=O)[C@@H](N)Cc1ccc(O)cc1)[C@@H](C)O)[C@@H](C)O)C(=O)N[C@@H](C)C(=O)N[C@@H](CC(C)C)C(=O)N[C@@H](CC(=O)O)C(=O)N[C@@H](CCC(=O)O)C(=O)N[C@@H](CCCCNC(=O)COCCOCCNC(=O)COCCOCCNC(=O)CC[C@H](NC(=O)CCCCCCCCCCCCCCCCCCC(=O)O)C(=O)O)C(=O)N[C@@H](C)C(=O)N[C@@H](CCC(N)=O)C(=O)N[C@@H](CCCNC(=N)N)C(=O)N[C@@H](C)C(=O)N[C@@H](Cc1ccccc1)C(=O)N[C@H](C(=O)N[C@@H](CCC(=O)O)C(=O)N[C@@H](Cc1c[nH]c2ccccc12)C(=O)N[C@@H](CC(C)C)C(=O)N[C@@H](CC(C)C)C(=O)N[C@@H](C)C(=O)N[C@@H](CCC(N)=O)C(=O)NCC(=O)N1CCC[C@H]1C(=O)N[C@@H](CO)C(=O)N[C@@H](CO)C(=O)NCC(=O)N[C@@H](C)C(=O)N1CCC[C@H]1C(=O)N1CCC[C@H]1C(=O)N1CCC[C@H]1C(=O)N[C@@H](CO)C(N)=O)C(C)C` [Compound 43] (H-Y[Aib]EGTFTSDYSIALDEK([AEEA-AEEA-γGlu-C20 diacid])AQRAFVEWLLAQGPSSGAPPPS-NH2) was tested, and the EC50 [1] was 0.005 nM and the EC50 [2] was 0.016 nM.
In the case of `CC[C@H](C)[C@H](NC(=O)[C@H](CO)NC(=O)[C@H](Cc1ccc(O)cc1)NC(=O)[C@H](CC(=O)O)NC(=O)[C@H](CO)NC(=O)[C@@H](NC(=O)[C@H](Cc1ccccc1)NC(=O)[C@@H](NC(=O)CNC(=O)[C@H](CCC(=O)O)NC(=O)C(C)(C)NC(=O)[C@@H](N)Cc1ccc(O)cc1)[C@@H](C)O)[C@@H](C)O)C(=O)N[C@@H](C)C(=O)N[C@@H](CC(C)C)C(=O)N[C@@H](CC(=O)O)C(=O)N[C@@H](CCCCN)C(=O)N[C@@H](CCCCNC(=O)COCCOCCNC(=O)COCCOCCNC(=O)CC[C@H](NC(=O)CCCCCCCCCCCCCCCCCCC(=O)O)C(=O)O)C(=O)N[C@@H](C)C(=O)N[C@@H](CCC(N)=O)C(=O)N[C@@H](CCCNC(=N)N)C(=O)N[C@@H](C)C(=O)N[C@@H](Cc1ccccc1)C(=O)N[C@H](C(=O)N[C@@H](CCC(=O)O)C(=O)N[C@@H](Cc1c[nH]c2ccccc12)C(=O)N[C@@H](CC(C)C)C(=O)N[C@@H](CC(C)C)C(=O)N[C@@H](C)C(=O)N[C@@H](CCC(=O)O)C(=O)NCC(=O)N1CCC[C@H]1C(=O)N[C@@H](CO)C(=O)N[C@@H](CO)C(=O)NCC(=O)N[C@@H](C)C(=O)N1CCC[C@H]1C(=O)N1CCC[C@H]1C(=O)N1CCC[C@H]1C(=O)N[C@@H](CO)C(N)=O)C(C)C` [Compound 55] (H-Y[Aib]EGTFTSDYSIALDKK([AEEA-AEEA-γGlu-C20 diacid])AQRAFVEWLLAEGPSSGAPPPS-NH2), the EC50 [1] is reported as 0.016 nM and the EC50 [2] is reported as 0.013 nM.

— patent US10093713B2, “GIP-GLP-1 dual agonist compounds and methods” (priority 2013, dated 2018)
